# Test results as given in patent US5817651A, “3-arylcarbonyl-1-(C-attached-N-heteryl)-1H-indoles” (Sanofi, priority 1997, dated 1998).
# Structures can show the parent of a compound that is named as a salt. Where two headings read alike, the source gives them in different places.
# How the values were obtained:
# Type in all cases: in vivo
# [1] = system: acetylcholine-induced abdominal constriction; test: acetylcholine-induced abdominal constriction test (ACH); details: mice; for ED50: Mus musculus
# Excerpt: J. Pharmacol. Chemotherap. 32, 295 (1968); a modification of the anti-bradykinin test, which is also a primary analgesic screening procedure, described by Berkowitz et al., J. Pharmacol. Exptl. Therap. 177, 500-508 (1971), Blane et al., J. Pharm. Pharmacol. 19, 367-373 (1967), Botha et al., Eur. J. Pharmacol. 6, 312-321 (1969) and Deffenu et al., J. Pharm. Pharmacol. 18, 135 (1966); and the Randall-Selitto analgesic test described by Randall and Selitto, Arch. Int. Pharmacodyn., 111, 409-419 (1957).
# Data in the developing adjuvant arthritis (AA) and plasma fibronectin (FN) assays are expressed as percent inhibition, i.e. inhibition of non-injected paw inflammation (NIP) and injected paw (RPV) and lowering of plasma fibronectin, the asterisks * and ** indicating statistical significance at the p<0.01 and p<0.05 levels, respectively. […] Non-statistically significant results are recorded as "------ ". In the acetylcholine-induced abdominal constriction test, the test compounds were administered either as suspensions in gum tragacanth (GT) or as aqueous solutions prepared by addition of just sufficient dilute aqueous methanesulfonic acid (MS) or dilute aqueous lactic acid (LA) to dissolve the compound. The compounds are identified by the example number above where their preparations are described. All data in the anti-bradykinin, rat writhing and Randall-Selitto tests were obtained on oral administration.
# [2] = system: acetic acid-induced writhing; test: acetic acid-induced writhing assay in the rat (RW); details: for ED50: Rattus norvegicus, po; for ED50 / RW ED50: oral administration; for RW percent inhibition at dose 30: dose level 30
# Method: (§1) Data in the developing adjuvant arthritis (AA) and plasma fibronectin (FN) assays are expressed as percent inhibition, i.e. inhibition of non-injected paw inflammation (NIP) and injected paw (RPV) and lowering of plasma fibronectin, the asterisks * and ** indicating statistical significance at the p<0.01 and p<0.05 levels, respectively. Compounds are considered active at p<0.05 level. Non-statistically significant results are recorded as "------ ". In the acetylcholine-induced abdominal constriction test, the test compounds were administered either as suspensions in gum tragacanth (GT) or as aqueous solutions prepared by addition of just sufficient dilute aqueous methanesulfonic acid (MS) or dilute aqueous lactic acid (LA) to dissolve the compound. The compounds are identified by the example number above where their preparations are described. All data in the anti-bradykinin, rat writhing and Randall-Selitto tests were obtained on oral administration.
# [3] = system: adjuvant induced arthritis; test: developing adjuvant arthritis (AA) assay; details: arthritic rats; printed * = p<0.01, ** = p<0.05
# Method: Antirheumatic and anti-inflammatory activities of the compounds of the invention were determined using the developing adjuvant arthritis assay in rats and the plasma fibronectin assay in arthritic rats. The developing adjuvant arthritis assay was used in conjunction with the plasma fibronectin assay as a primary screening method in the evaluation of compounds for potential use as disease modifying anti-rheumatic drugs. The procedure used to induce arthritis in rats is a modification of the methods published by Pearson, J. Chron. Dis. 16, 863-874 (1973) and by Glenn et al., Amer. J. Vet. Res. 1180-1193 (1965). Adjuvant induced arthritis bears many of the traits of rheumatoid arthritis. It is a chronic, progressive, deforming arthritis of the peripheral joints, with a primary mononuclear cell response consisting of bone and joint space invasion by pannus. In order to detect disease modifying anti-rheumatic drug activity, drug treatment is started before the disease has become irrevocably established. Since such drugs are not designed to be administered prophylactically, drug treatment of adjuvant arthritis is initiated at a time when the disease is developing but is not yet irreversible. Animals develop significant systemic arthritic disease which can be measured by swelling of the non-injected rear paw (NIP) 15 to 20 days following an initial injection on day 1 of complete Freund's adjuvant into the right hindfoot paw.
# as §1
# [4] = Table 9, Examples, no route marked in the cell, read-out: ACH ED50
# [5] = iv, Table 9, iv, read-out: ACH ED50 (iv)
# [6] = Table 9, Examples, no route marked in the cell
SMILES,"ED50 [1, 4] [mg/kg]",ED50 [2] [mg/kg],NIP: percent inhibition of non-injected paw inflammation [3] [%],RPV: percent inhibition of injected paw [3] [%],also measured
CC(C1CCCN(C)C1)n1cc(C(=O)c2ccccc2F)c2ccccc21 (centres unmarked) [Example 4F],24,6,45,27,
Cc1c(C(=O)c2ccccc2)c2ccccc2n1CC1CCCN(C)C1 (centres unmarked) [Example 1K],33,40,76,50,
COc1ccc(C(=O)c2cn(CC3CCCN(C)C3)c3ccccc23)cc1 (centres unmarked) [Example 1I],,32,61,19,"ED50 [1, 5]: 5 mg/kg; ACH ED50 (MS) ([1]; Table 9, aqueous solution with dilute methanesulfonic acid (MS)): 38 mg/kg"
COc1ccc(C(=O)c2c(C)n(CC3CCCNC3)c3ccccc23)cc1 (centres unmarked) [Example 4B],15,10,91,79,
COc1ccc(C(=O)c2c(C)n(C3CCCCN(C)C3)c3ccccc23)cc1 (centres unmarked) [Example 2X],29,,43,,"RW percent inhibition at dose 30 ([2]; oral): 54%; RW percent inhibition at dose 100 ([2]; oral, dose level 100): 82%"
CSc1ccc(C(=O)c2c(C)n(CC3CCCN(C)C3)c3ccccc23)cc1 (centres unmarked) [Example 2O],8,5,65,44,
Cc1c(C(=O)c2ccccc2F)c2ccccc2n1CC1CCCN1C (centres unmarked) [Example 2AJ],72,6,31,,
CCN1CCCC(Cn2c(C)c(C(=O)c3ccc(OC)cc3)c3ccccc32)C1 (centres unmarked) [Example 2L],11,2,,,
CC(C1CCCNC1)n1cc(C(=O)c2ccccc2F)c2ccccc21 (centres unmarked) [Example 4H],,4,,,"ACH ED50 [1, 6]: 25 mg/kg"
"Cc1c(C(=O)c2ccc([S+](C)[O-])cc2)c2ccccc2n1CC1CCCN(C)C1.Cl (centres unmarked) [Example 6A, 1-[(1-methyl-3-piperidinyl)methyl]-2-methyl-3-(4-methylsulfinylbenzoyl)-1H-indole hydrochloride]",9,5,93,81,
"COc1ccc(C(=O)c2c(C)n(CC3CN(C)CCO3)c3ccccc23)cc1 (centres unmarked) [Example 1A, 1-[(4-methyl-2-morpholinyl)methyl]-2-methyl-3-(4-methoxybenzoyl)-1H-indolehydrochloride]",9,3,,,
"Cc1c(C(=O)c2ccc(N)cc2)c2ccccc2n1CC1CCCN(C)C1 (centres unmarked) [Example 9, 2-methyl-3-(4-aminobenzoyl)-1-[(1-methyl-3-piperidinyl)methyl]-1H-indole hydrochloride hemihydrate]",12,9,,,
Cc1c(C(=O)c2ccccc2F)c2ccccc2n1CC1CN(C)CCO1 (centres unmarked) [Example 1F],22,26,,,
CCN1CCCC(n2c(C)c(C(=O)c3ccc(OC)cc3)c3ccccc32)C1 (centres unmarked) [Example 2AE],26,,,,RW percent inhibition at dose 30 ([2]; oral): 15%
"COc1ccc(C(=O)c2c(C)n(CC3CCCN3C)c3ccccc23)cc1 (single isomer, unassigned) [2E(d), (d)1-(1-methyl-2-pyrrolidinylmethyl)-2-methyl-3-(4-methoxy-benzoyl)-1H-inole hydorochloride]",47,,,,"ACH ED50 [1, 6]: 36 mg/kg; RW ED50 [2]: 30 mg/kg"
CC(C1CCCN(C)C1)n1cc(C(=O)c2ccccc2F)c2ccccc21 (centres unmarked) [Example 4G],,,,,"ACH ED50 [1, 6]: 19 mg/kg; RW ED50 [2]: 7 mg/kg"
COc1ccc(C(=O)c2c(C)n(CC3CN(C)CCN3C)c3ccccc23)cc1 (centres unmarked) [Example 2V],20,15,,,
COc1ccc(C(=O)c2c(C)n(CC3=CCCN(C)C3)c3ccccc23)cc1 [Example 2AF],11,15,93,78,
COc1ccc(C(=O)c2c(C)n(CCC3CCCCN3C)c3ccccc23)cc1 (centres unmarked) [Example 2G],26,3,93,73,
"COc1ccc(C(=O)c2c(C)n(CC3CCCN3C)c3ccccc23)cc1 (single isomer, unassigned) [2E(1), (1)1-(1-methyl-2-pyrrolidinylmethyl)-2-methyl-3-(4-methoxybenzoyl)-1H-indle hydrochloride]",,,,,"ACH ED50 ([1]; Table 9, Examples, no route marked in the cell, hydrochloride): 35 mg/kg; RW ED50 ([2]; hydrochloride): 13 mg/kg"
"COc1ccc(C(=O)c2c(C)n(CC3CCCN3)c3ccccc23)cc1.Cl (centres unmarked) [Example 8A, 2-methyl-3-(4-methoxybenzoyl)-1-[(2-pyrrolidinyl)methyl]-1H-indole hydrochloride]",41,25,,,
Cc1c(C(=O)c2ccccc2)c2ccccc2n1CC1CN(C)CCO1 (centres unmarked) [Example 1C],21,10,,,
COc1ccc(C(=O)c2c(C)n(CC3CCN(C)C3)c3ccccc23)cc1 (centres unmarked) [Example 2AI],11,4,,,"ACH ED50 [1, 6]: 13 mg/kg"
CCc1c(C(=O)c2ccc(OC)cc2)c2ccccc2n1CC1CCCN(C)C1 (centres unmarked) [Example 2K],16,23,68,54,"ED50 [1, 5]: 11 mg/kg; ED50 ([1]; sc, Table 9, sc, read-out: ACH ED50 (sc)): 10 mg/kg"
"COc1ccc(C(=O)c2c(C)n(CC3(O)CCN(C)CC3)c3ccccc23)cc1 [Example 5, 2-methyl-3-(4-methoxybenzoyl)-1-[(1-methyl-4-hydroxy-4-piperidinyl)methyl]-1H-indole]",23,9.1,,,
COc1ccc(C(=O)c2c(C)n(CC3CCCN(C)C3)c3ccc(F)cc23)cc1 (centres unmarked) [Example 2I],40,5,70,51,
